# In patent EP1285971B1, “Methods for the phenotypic and genotypic assessment of the drug sensitivity of HIV integrase variants” (Tibotec Pharmaceuticals Ltd., priority 2001, dated 2003):
# Key:
# patient_146514 = experiment: microbe, parasite or virus in culture; format: cell-based, HIV
# Description: (§1) The integrase encoding sequence was amplified from either wildtype HIV-1 (IIIB) or NL4.3 virus, or HXB2D site-directed mutant viruses containing mutations in integrase (such as T66I, S153Y, M154I, or combinations thereof) (Hazuda et al., Science 2000, 287, 646-650), or patient samples. Starting from RNA, extracted from virus supernatant or plasma using the QIAamp® viral RNA extraction kit (Qiagen), cDNA was synthesized by reverse transcription (Expand TM reverse transcriptase, 30 min at 42°C) with the primer 3'EGINT10 (SEQ ID NO 11), followed by a nested PCR. The outer PCR was performed with the primers 5'EGINT1 (SEQ ID NO 1) and 3'EGINT10 (SEQ ID NO 11) (ΔR-IN-vif construct) or 5'EGINT3 (SEQ ID NO 4) and 3'EGINT10 (SEQ ID NO 11) (ΔIN construct) (Expand™ High Fidelity PCR system), and 5 µl of the outer product was used for an inner PCR with primers 5'EGINT2 (SEQ ID NO 3) and 3'EGINT11 (SEQ ID NO 12) (ΔR-IN-vif construct) or 5'EGINT4 (SEQ ID NO 5) and 3'EGINT6 (SEQ ID NO 7) (ΔIN construct). In a second protocol the outer primers were identical as described above, the inner primers are 5'EGINT5 (SEQ ID NO 6) and 3'EGINT6 (SEQ ID NO 7). The amplicons can be used for genotyping and phenotyping. Cycling conditions for both PCRs are denaturation for 3 min at 95°C, followed by 30 cycles of 1 min 90°C, 30 sec 55°C, and 2 min 72°C. A final extension was performed at 72°C for 10 min. For recombination, PCR products are purified using the QiaQuick® 96 PCR BioRobot kit (Qiagen), according to the manufacturer's protocol. If the protocol starts from DNA containing the HIV material such as proviral DNA, the reverse transcriptase step is not needed. The nested approach is also not needed when starting from proviral DNA. The obtained amplicons were sequenced using the primers: In_seq1F (SEQ ID NO 17), In_seq2F (SEQ ID NO 18), In_seq3F (SEQ ID NO 19), IN_seq1R (SEQ ID NO 20), IN_seq2R (SEQ ID NO 21), and IN_seq3R (SEQ ID NO 22).
# (§2) A ΔR-IN-vif or ΔIN deletion construct was generated by site-directed mutagenesis on the template pSV40HXB2D with the primers MUT-IN1 (SEQ ID NO 13) and MUT-IN2 (ΔR-IN-vif construct) (SEQ ID NO 14) or MUT-IN3 (SEQ ID NO 15) and MUT-IN4 (SEQ ID NO 16) (ΔIN construct) (protocol Site-directed mutagenesis kit, Stratagene). After DpnI digestion for removal of the methylated template DNA, the construct was digested with SmaI and ligated to circulize the plasmid. The plasmid was transformed into competent cells such as Top10 cells, and colonies were screened for the presence of the deletion construct. The IN-deletion construct was checked by sequence analysis with primers 5'EGINT1 (SEQ ID NO 1) or […] and 3'EGINT10 (SEQ ID NO 11) or 3'EGINT11 (SEQ ID NO 12). For use in recombination experiments, large-scale plasmid DNA preparations were linearized by SmaI digestion and recombined with PCR amplified integrase genes from wild type, mutant, or patient viruses. The plasmid containing the integrase deletion (ΔIN) has been deposited pSV40HXB2D-ΔIN. The sequence of said plasmid is 14377 nucleotides long. The ΔR-IN-vif deletion construct is 13975 nucleotides long. The pSV40HXB2D-ΔIN was deposited at the Belgian Coordinated Collections of Micro-Organisms located at the Universiteit Gent - Laboratorium voor Moleculaire Biologie on August 5, 2002 and the accession number is LMBP 4574.
# (§3) Recombinant virus was produced by co-transfection by electroporation of the SmaI-linearized IN-deletion construct and the integrase amplicon into MT4 cells or MT4 cells equipped with an LTR driven reporter gene construct. Production of recombinant virus was evaluated by scoring the cytopathogenic effect (CPE) that is induced by HIV-infection of MT4 cells or by the LTR-driven reporter signal induced by HIV infection in MT4 reporter cells.
# NL 4-3 = experiment: microbe, parasite or virus in culture; format: cell-based, HIV-1; details: for fold change: fold change in EC50
# Description: as §1, §2, §3
# WT III B = experiment: microbe, parasite or virus in culture; format: cell-based, HIV-1; details: for fold change: fold change in EC50
# Description: as §1, §2, §3
# M154I mutation = experiment: Antiviral assay with recombinant virus generated from site-directed mutant virus; format: cell-based, HIV
# Description: as §1
# (§4) Recombinant virus was produced by co-transfection by electroporation of the SmaI-linearized IN-deletion construct and the integrase amplicon into MT4 cells or MT4 cells equipped with an LTR driven reporter gene construct. Production of recombinant virus was evaluated by scoring the cytopathogenic effect (CPE) that is induced by HIV-infection of MT4 cells or by the LTR-driven reporter signal induced by HIV infection in MT4 reporter cells. Green fluorescent protein was used as the reporter signal. Viruses are harvested and titrated at maximum CPE. For recombination the deletion construct pSV40HXB2D-ΔIN was used. Recombination experiments were performed with amplicon from wildtype HIV IIIB and NL4.3, and patient sample 146514 generated by both primer sets. For each recombination 2 µg amplicon was co-transfected with 10 µg SmaI-digested pSV40HXB2D-ΔIN by electroporation into MT4-LTR-EGFP cells. Virus stocks were titrated and tested in an antiviral experiment on a reference panel including nucleoside reverse transcriptase inhibitors (NRTI), non- nucleoside reverse transcriptase inhibitors (NNRTI), protein inhibitor (PR), entry and integrase (IN) inhibitors (Table 2). Recombination was checked by nucleic acid sequence analysis using protocols known to the person skilled in the art. Sequencing primers which can be used are In_seq1F (SEQ ID NO 17), In_seq2F (SEQ ID NO 18), In_seq3F (SEQ ID NO 19), IN_seq1R (SEQ ID NO 20), IN_seq2R (SEQ ID NO 21), and IN_seq3R (SEQ ID NO 22).
# S153Y = experiment: as above; format: cell-based, HIV
# Description: as §1, §4
# T661/M154I mutations = experiment: as above; format: cell-based, HIV
# Description: as §1, §4
# T66I mutation = experiment: as above; format: cell-based, HIV
# Description: as §1, §4
# T66I/S153Y mutations = experiment: as above; format: cell-based, HIV
# Description: as §1, §4
smiles,measurement,setting,value
"CC(C)Oc1ccc(Cc2ccccc2)cc1C(=O)CC(=O)C(=O)O [Compound 4, 2-(1-methylethyloxy)-α,γ dioxo-5-(phenylmethyl)-benzenebutanoic acid]",fold change,"patient_146514; AVE 2, patient_146514, primer set 3, fold change in EC50","1,0"
same,EC50,"patient_146514; Human immunodeficiency virus 1, AVE 2, patient_146514, primer set 3",280 nM
same,fold change,"NL 4-3; AVE 1, NL 4-3, primer set 3","0,6"
same,fold change,"NL 4-3; AVE 4, NL4-3, primer set 4","0,9"
same,EC50,"NL 4-3; Human immunodeficiency virus 1, AVE 1, NL 4-3, primer set 3",172 nM
same,EC50,"NL 4-3; Human immunodeficiency virus 1, NL43, AVE 4, NL4-3, primer set 4",242 nM
same,fold change,"WT III B; AVE 3, WT III B, primer set 3","0,4"
same,fold change,"WT III B; AVE 5, WT III B, primer set 4","0,7"
same,EC50,"WT III B; Human immunodeficiency virus 1, AVE 3, WT III B, primer set 3",106 nM
same,EC50,"WT III B; Human immunodeficiency virus 1, AVE 5, WT III B, primer set 4",186 nM
same,fold increase in EC50,M154I mutation,3 fold
same,fold increase in EC50,S153Y,5 fold
same,fold increase in EC50,T661/M154I mutations,10 fold
same,fold increase in EC50,T66I mutation,2 fold
same,fold increase in EC50,T66I/S153Y mutations,10 fold
